Measurements reported in ChEMBL document CHEMBL1143757, “Synthesis and inhibitory activity of new benzimidazole derivatives against Burkitt's lymphoma promotion” (2007).

Legend:
Human gammaherpesvirus 4 [1] = assay: Inhibition of TPA-induced Epstein-Barr virus early antigen activation in Raji cells at 3.2 nmol relative to control; values are per cent of control
Human gammaherpesvirus 4 [2] = assay: Inhibition of TPA-induced Epstein-Barr virus early antigen activation in Raji cells at 16 nmol relative to control; values are per cent of control
Raji = assay: Cytotoxicity against Raji cells assessed as cell viability at 32 nmol relative to control; type: functional, Homo sapiens
Human gammaherpesvirus 4 [3] = assay: Inhibition of TPA-induced Epstein-Barr virus early antigen activation in Raji cells at 32 nmol relative to control; values are per cent of control
Human gammaherpesvirus 4 [4] = assay: Inhibition of TPA-induced Epstein-Barr virus early antigen activation in Raji cells at 0.32 nmol relative to control; values are per cent of control

Row | SMILES | level, % of control (Human gammaherpesvirus 4 [1]) | level, % of control (Human gammaherpesvirus 4 [2]) | Activity (Raji) | level, % of control (Human gammaherpesvirus 4 [3]) | level, % of control (Human gammaherpesvirus 4 [4])
1 | Cc1nc2cc(N3C(=O)CSC3c3cccc4ccccc34)ccc2[nH]1 (stereo not given) | 85.1% | 61% | 60% | 17.1% | 100%
2 | Cc1nc2cc([N+](=O)[O-])ccc2n1Cc1ccccc1 | 87.4% | 62.4% | 60% | 18.3% | 100%
3 | Cc1nc2cc(N3C(=O)CSC3c3ccc4c(c3)OCO4)ccc2[nH]1 (stereo not given) | 88.4% | 65% | 60% | 21.6% | 100%
4 | Cc1nc2cc(N3C(=O)CSC3c3cccs3)ccc2[nH]1 (stereo not given) | 88.9% | 66.5% | 60% | 22.1% | 100%
5 | Cc1nc2cc(/N=C\c3ccc(C)o3)ccc2[nH]1 | 86.2% | 62% | 60% | 18% | 100%
6 | Cc1nc2cc(/N=C\c3ccc4c(c3)OCO4)ccc2[nH]1 | 85.4% | 60.2% | 60% | 15.1% | 100%
7 | CNC(=S)Nc1ccc2c(c1)nc(C)n2Cc1ccccc1 | 80% | 58.1% | 60% | 13.2% | 100%
8 | CCNC(=S)Nc1ccc2c(c1)nc(C)n2Cc1ccccc1 | 81.2% | 59.6% | 60% | 14% | 100%
9 | Cc1nc2cc(NC(=S)NC(=O)c3ccccc3)ccc2n1Cc1ccccc1 | 82% | 60.6% | 60% | 17.8% | 100%
10 | COc1ccc(NC(=S)Nc2ccc3c(c2)nc(C)n3Cc2ccccc2)cc1 | 78.3% | 53.1% | 60% | 13.5% | 100%
11 | CCN1C(=O)CS/C1=N/c1ccc2c(c1)nc(C)n2Cc1ccccc1 | 81.1% | 54.2% | 60% | 18.3% | 100%
12 | Cc1nc2cc(/N=C\c3c[nH]c4ccccc34)ccc2[nH]1 | 86.1% | 62.1% | 60% | 18.4% | 100%
13 | Cc1nc2cc(/N=C\c3cccc4ccccc34)ccc2[nH]1 | 89.6% | 65.8% | 60% | 20.6% | 100%
14 | Cc1nc2cc(/N=C3/SCC(=O)N3C(=O)c3ccccc3)ccc2n1Cc1ccccc1 | 82.5% | 52.5% | 60% | 12.3% | 100%
15 | COc1ccc(N2C(=O)CS/C2=N/c2ccc3c(c2)nc(C)n3Cc2ccccc2)cc1 | 78% | 53% | 60% | 13.2% | 100%
16 | Cc1nc2ccccc2[nH]1 | 88.3% | 63.6% | 60% | 19.6% | 100%
17 | Cc1nc2cc([N+](=O)[O-])ccc2[nH]1 | 88% | 62.5% | 60% | 18.4% | 100%
18 | Cc1ccc(C2SCC(=O)N2c2ccc3[nH]c(C)nc3c2)cc1 (stereo not given) | 88.9% | 66.1% | 60% | 23.1% | 100%
19 | Cc1nc2cc(/N=C3/SCC(=O)N3C)ccc2n1Cc1ccccc1 | 83.4% | 61.2% | 60% | 20.7% | 100%
20 | Cc1nc2cc(N3C(=O)CSC3c3ccc(C)o3)ccc2[nH]1 (stereo not given) | 87.7% | 65.1% | 60% | 20.9% | 100%
21 | Cc1nc2cc(N3C(=O)CSC3c3c[nH]c4ccccc34)ccc2[nH]1 (stereo not given) | 87.1% | 65.9% | 60% | 21.8% | 100%
22 | Cc1nc2cc(/N=C3/SCC(=O)N3c3ccccc3)ccc2n1Cc1ccccc1 | 82.5% | 61% | 60% | 19.4% | 100%
23 | Cc1nc2cc(NC(=S)Nc3ccccc3)ccc2n1Cc1ccccc1 | 83.1% | 60.2% | 60% | 15.3% | 100%
24 | Cc1ccc(/C=N\c2ccc3[nH]c(C)nc3c2)cc1 | 89.1% | 64.5% | 60% | 19.3% | 100%
25 | Cc1nc2cc(/N=C\c3cccs3)ccc2[nH]1 | 89.1% | 65.5% | 60% | 22% | 100%
26 | Cc1nc2cc(N)ccc2[nH]1.Cl | 88.9% | 64.3% | 60% | 20.3% | 100%
27 | Cc1nc2cc(N)ccc2n1Cc1ccccc1.Cl | 86.3% | 62.2% | 60% | 18.5% | 100%
